Where “and” joins values, the source holds several entries; their conditions need not be identical. Equal entries are not always repeated. Inconclusive results and toxic doses are left out.
Test system: L1210 leukemia ip in BDF1 mice, survival T/C
Assay: NCI In Vivo Anticancer Drug Screen. Data for tumor model L1210 Leukemia (intraperitoneal) in B6D2F1 (BDF1) mice
Conditions: endpoint: mean survival time, higher = longer survival
Procedure, shortened: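 Transplanted-tumor mice were given test agent; controls received vehicle only. Survival readings from the two groups were divided (treated over control).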

[1] = dose: 50.0 mg/kg/injection, schedule: Q01DX001 (ip), vehicle: carboxymethylcellulose (CMC)
[2] = dose: 100.0 mg/kg/injection, schedule: Q01DX001 (ip), vehicle: carboxymethylcellulose (CMC)
[3] = dose: 200.0 mg/kg/injection, schedule: Q01DX001 (ip), vehicle: carboxymethylcellulose (CMC)
[4] = dose: 50.0 mg/kg/injection, schedule: Q01DX009 (ip), vehicle: saline with Tween-80
[5] = dose: 100.0 mg/kg/injection, schedule: Q01DX009 (ip), vehicle: saline with Tween-80
[6] = dose: 200.0 mg/kg/injection, schedule: Q01DX009 (ip), vehicle: saline with Tween-80
[7] = dose: 400.0 mg/kg/injection, schedule: Q01DX001 (ip), vehicle: carboxymethylcellulose (CMC)

## COc1cc(C=Nc2cc(Cl)cc(Cl)c2)ccc1N(CCCl)CCCl
dose: 10.5 mg/kg/injection, schedule: Q01DX015 (ip), vehicle: carboxymethylcellulose (CMC)
  T/C: 114 % of control and 116 % of control
dose: 18.0 mg/kg/injection, schedule: Q01DX015 (ip), vehicle: carboxymethylcellulose (CMC)
  T/C: 113 % of control and 117 % of control
dose: 30.0 mg/kg/injection, schedule: Q01DX015 (ip), vehicle: carboxymethylcellulose (CMC)
  T/C: 123 % of control
[1]
  T/C: 123 % of control
dose: 50.0 mg/kg/injection, schedule: Q01DX001 (ip), vehicle: other
  T/C: 105 % of control
dose: 50.0 mg/kg/injection, schedule: Q01DX015 (ip), vehicle: carboxymethylcellulose (CMC)
  T/C: 122 % of control
[2]
  T/C: 157 % of control
dose: 100.0 mg/kg/injection, schedule: Q01DX001 (ip), vehicle: other
  T/C: 118 % of control
dose: 150.0 mg/kg/injection, schedule: Q01DX001 (ip), vehicle: carboxymethylcellulose (CMC)
  T/C: 116 % of control
[3]
  T/C: 123 % of control
dose: 200.0 mg/kg/injection, schedule: Q01DX001 (ip), vehicle: other
  T/C: 123 % of control
dose: 400.0 mg/kg/injection, schedule: Q01DX001 (ip), vehicle: other
  T/C: 111 % of control
dose: 800.0 mg/kg/injection, schedule: Q01DX001 (ip), vehicle: other
  T/C: 120 % of control

## CCOCC(=O)CC1=CCCCC1
[4]
  T/C: 94 % of control
[5]
  T/C: 102 % of control
[6]
  T/C: 94 % of control

## CCN(CC)C/C=C/C(C)Nc1ccnc2cc(Cl)ccc12 (centres undefined)
dose: 5.0 mg/kg/injection, schedule: Q04DX002 (ip), vehicle: saline with Tween-80
  T/C: 98 % of control
dose: 10.0 mg/kg/injection, schedule: Q04DX002 (ip), vehicle: saline with Tween-80
  T/C: 98 % of control
dose: 20.0 mg/kg/injection, schedule: Q04DX002 (ip), vehicle: saline with Tween-80
  T/C: 94 % of control

## O=C(NCCCl)Nc1ccc2c3c(cccc13)CC2
dose: 100.0 mg/kg/injection, schedule: Q01DX009 (ip), vehicle: Klucel (hydroxypropylcellulose) (HPC)
  T/C: 87 % of control
dose: 200.0 mg/kg/injection, schedule: Q04DX003 (ip), vehicle: Klucel (hydroxypropylcellulose) (HPC)
  T/C: 95 % of control

## C[N+](C)(C)Cc1c[nH]c2ccsc12
dose: 12.5 mg/kg/injection, schedule: Q01DX001 (ip), vehicle: saline with Tween-80
  T/C: 107 % of control

## Cn1cc([N+](=O)[O-])c(=O)n(C)c1=O
[1]
  T/C: 93 % of control
[2]
  T/C: 98 % of control
[3]
  T/C: 102 % of control
[7]
  T/C: 104 % of control

## C=CCNc1ccc(OC)cc1
[4]
  T/C: 88 % of control
[5]
  T/C: 96 % of control
[6]
  T/C: 98 % of control

## COc1cc(C2C(C(=O)OC/C=C/c3ccc4c(c3)OCO4)C(c3cc(OC)c(OC)c(OC)c3)C2C(=O)OC/C=C/c2ccc3c(c2)OCO3)cc(OC)c1OC (centres undefined)
[2]
  T/C: 90 % of control
[3]
  T/C: 95 % of control
[7]
  T/C: 88 % of control

## COc1c(Br)c(Br)c(Br)c(OC)c1OC
[1]
  T/C: 98 % of control
[2]
  T/C: 101 % of control
[3]
  T/C: 106 % of control
[7]
  T/C: 98 % of control

## Cc1cn(C2CC(O)C(CN)O2)c(=O)[nH]c1=O (centres undefined)
dose: 100.0 mg/kg/injection, schedule: Q01DX005 (ip), vehicle: saline
  T/C: 96 % of control
dose: 200.0 mg/kg/injection, schedule: Q01DX005 (ip), vehicle: saline
  T/C: 104 % of control

## CC(=O)Nc1ccn(C2OC(COC(C)=O)C(OC3OC(COC(C)=O)C(OC(C)=O)C(OC(C)=O)C3OC(C)=O)C(OC(C)=O)C2OC(C)=O)c(=O)n1 (centres undefined)
dose: 22.5 mg/kg/injection, schedule: Q01DX001 (ip), vehicle: carboxymethylcellulose (CMC)
  T/C: 103 % of control
dose: 45.0 mg/kg/injection, schedule: Q01DX001 (ip), vehicle: carboxymethylcellulose (CMC)
  T/C: 100 % of control
dose: 90.0 mg/kg/injection, schedule: Q01DX001 (ip), vehicle: carboxymethylcellulose (CMC)
  T/C: 100 % of control
dose: 180.0 mg/kg/injection, schedule: Q01DX001 (ip), vehicle: carboxymethylcellulose (CMC)
  T/C: 100 % of control

## Nc1ccc(NS(=O)(=O)Cc2ccccc2)cc1
dose: 100.0 mg/kg/injection, schedule: Q01DX001 (ip), vehicle: saline with Tween-80
  T/C: 98 % of control
dose: 200.0 mg/kg/injection, schedule: Q01DX001 (ip), vehicle: saline with Tween-80
  T/C: 96 % of control
dose: 400.0 mg/kg/injection, schedule: Q01DX001 (ip), vehicle: saline with Tween-80
  T/C: 107 % of control

## COc1cc2c(c(Oc3ccc(C)cc3)c1)CN(C)CC2
dose: 100.0 mg/kg/injection, schedule: Q04DX003 (ip), vehicle: saline
  T/C: 98 % of control

## CN1C2CCCC1CC(O)(c1ccccc1)C2 (centres undefined)
dose: 12.5 mg/kg/injection, schedule: Q01DX001 (ip), vehicle: Klucel (hydroxypropylcellulose) (HPC)
  T/C: 96 % of control
dose: 25.0 mg/kg/injection, schedule: Q01DX001 (ip), vehicle: Klucel (hydroxypropylcellulose) (HPC)
  T/C: 99 % of control
dose: 50.0 mg/kg/injection, schedule: Q01DX001 (ip), vehicle: Klucel (hydroxypropylcellulose) (HPC)
  T/C: 102 % of control
